Results published in patent US20250163119A1, “COMPOUNDS FOR THE TREATMENT OF DIABETES OR OBESITY” (Eli Lilly and Company, priority 2023, published 2025).
“And” between values parts separate entries of the source, which are not always exact repeats. Equal entries are not always repeated. Where two headings read alike, the source gives them in different places. Each block holds one substance with its values, some of them ahead of it. *1 amine or outer side, *2 acyl side, *3 side chain or, on linkers, in order; H or OH if unused. Side-chain parts run from the residue outwards. [ ]: non-standard residue; d: D form. The star is where a group is joined. C20 diacid = O=C(O)CCCCCCCCCCCCCCCCCCC(=O)*; γGlu = O=C(O)[C@H](CCC(=O)[*:2])N[*:1]; εLys = N[C@@H](CCCCN[*:1])C(=O)[*:2]; pGlu = O=C1CC[C@@H](C(=O)O)N1; αMeL = CC(C)C[C@](C)(N)C(=O)O; AEEA = NCCOCCOCC(=O)O; Aib = CC(C)(N)C(=O)O

How the values were obtained:
[1] = system: MHC-II presented peptides on human dendritic cells; assay: MAPPS assay (MHC-Associated Peptide Proteomics); format: cell-based; conditions: for peptides displayed on MHC-II complexes: human dendritic cells from normal donors; for immunogenicity compared with SEQ ID NO:54: in the MAPPs assay and/or the T cell proliferation assay
How it was run: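 CD14+ monocytes from healthy donor PBMCs were differentiated to immature DCs with IL-4/GM-CSF, exposed to test molecules on day 4 and matured with LPS on day 5. On day 6, MHC-II complexes were immunoprecipitated and eluted peptides identified by mass spectrometry; value is percentage of donors presenting peptides from each region.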

[2] = Pharmacokinetics in Yucatan mini-pigs, single subcutaneous or intravenous dose; format: in vivo
Procedure: Plasma concentrations of compounds were determined by LC/MS methods. For each assay, the compound and an internal standard (IS), were extracted from 100% mouse, rat, pig, or monkey plasma (70 μL) using Isopropanol-Methanol. Two distinct layers were formed upon centrifugation with the compound and the IS located in the supernatant layer. An aliquot of the supernatant (150 μL) was transferred to a Waters Sirocco Protein Precipitation Plate. The supernatant was eluted using a positive pressure manifold. The supernatant was mixed with 100-2 Water-Formic acid (400 μL) in a pretreated Sep-Pak tC18 SPE plate and eluted to waste. The peptide and IS were eluted with Acetonitrile-Formic acid (100 μL) in 2 steps (50 μL each step). The elution (40 μL) from SPE plate was mixed with diluent solution (1.875 μL 5× invitrosol and 3.125 μL 1% formic acid in water, 80 μL). A final sample (10 μl) was loaded onto a Xselect CSH C18 IS column (3.5 μm 2.1×20 mm). The column effluent was directed into a Thermo Fisher Scientific Orbitrap (Exploris 240) mass spectrometer for detection and quantitation.
Male Yucatan mini-pigs were administered a single subcutaneous dose or intravenous dose (19 or 99 nmol/kg) of compound in 40 mM Tris-HCl 5% D-mannitol (pH 8) at a volume of 0.01 or 0.05 mL/kg. Blood was collected from each animal at 0.083 (IV only), 0.5, 3, 6, 24, 48, 72, 96, 168, 240, 336, 408, and 504 hours postdose for pharmacokinetic characterization.

[3] = donors displaying MHC-II peptides / donors tested
[4] = percentage of donors displaying MHC-II peptides
[5] = Yucatan mini-pig, minipig, plasma, sc, male Yucatan pigs, single subcutaneous dose 19 nmol/kg, Mean, read-out: AUC0-inf
[6] = Yucatan mini-pig, minipig, plasma, sc, male Yucatan pigs, single subcutaneous dose 19 nmol/kg, Mean, read-out: Cmax
[7] = male Yucatan pigs, single subcutaneous dose 19 nmol/kg, individual animal
[8] = male, Yucatan mini-pig, minipig, plasma, iv, 19 nmol/kg, single intravenous dose 19 nmol/kg, individual animal
[9] = male, Yucatan mini-pig, minipig, plasma, iv, 19 nmol/kg, single intravenous dose 19 nmol/kg, mean
[10] = male, Yucatan mini-pig, minipig, plasma, sc, 19 nmol/kg, single subcutaneous dose 19 nmol/kg, Mean
[11] = male, Yucatan mini-pig, minipig, plasma, sc, 19 nmol/kg, single subcutaneous dose 19 nmol/kg, Mean, read-out: CL/F (converted)
[12] = male, Yucatan mini-pig, minipig, plasma, sc, 19 nmol/kg, single subcutaneous dose 19 nmol/kg, Mean, read-out: Tmax
[13] = male, Yucatan mini-pig, minipig, plasma, sc, 19 nmol/kg, single subcutaneous dose 19 nmol/kg, individual animal
[14] = male, Yucatan mini-pig, minipig, plasma, sc, 19 nmol/kg, single subcutaneous dose 19 nmol/kg, individual animal, read-out: CL/F (converted)
[15] = male, Yucatan mini-pig, minipig, plasma, sc, 19 nmol/kg, single subcutaneous dose 19 nmol/kg, individual animal, read-out: Tmax
[16] = minipig, plasma, single intravenous dose 19 nmol/kg, male Yucatan pigs, mean, read-out: AUC0-inf
[17] = minipig, plasma, single intravenous dose 19 nmol/kg, male Yucatan pigs, mean, read-out: C0
[18] = single intravenous dose 19 nmol/kg, male Yucatan pigs, individual animal
[19] = male Yucatan pigs, single subcutaneous dose 18 nmol/kg, individual animal
[20] = male, Yucatan mini-pig, minipig, plasma, iv, 18 nmol/kg, single intravenous dose 18 nmol/kg, individual animal
[21] = male, Yucatan mini-pig, minipig, plasma, iv, 18 nmol/kg, single intravenous dose 18 nmol/kg, mean
[22] = single intravenous dose 18 nmol/kg, male Yucatan pigs, individual animal

MAPPS Assay >10 donors with diverse MHC [1, 3]: 3/20
MAPPS Assay >10 donors with diverse MHC [1, 4]: 15%
AUC0-inf [2, 5]: 17.8 µM·h
Cmax [2, 6]: 147 nM
AUC0-inf [2, 7]: 22.4 µM·h and 13.1 µM·h
CL/F [2, 7]: 35 mL/day/kg
Cmax [2, 7]: 171 nM and 122 nM
T1/2 [2, 7]: 60.2 h
clearance [2, 8]: 14 mL/day/kg
half-life [2, 8]: 87 h
clearance [2, 9]: 18.1 mL/day/kg
half-life [2, 9]: 71.5 h
half-life [2, 10]: 75.9 h
CL/F [2, 11]: 27.6 mL/day/kg
Tmax [2, 12]: 6 h
half-life [2, 13]: 91.6 h
CL/F [2, 14]: 20.4 mL/day/kg
Tmax [2, 15]: 6 h
AUC0-inf [2, 16]: 26.2 µM·h
C0 [2, 17]: 619 nM
AUC0-inf [2, 18]: 32.1 µM·h and 20.2 µM·h
C0 [2, 18]: 591 nM and 646 nM
CL [2, 18]: 22.2 mL/day/kg
T1/2 [2, 18]: 55.9 h
Substance: Ac-GSPSIVTS[αMeL]DVPT[Aib][αMeL]LQKILEQERAEKARQQAK([γGlu-AEEA-εLys-C20 diacid])EAAEILAQV-NH2 [SEQ ID NO: 1, Ac-GSPSIVTS αMeL DVPT Aib αMeL LQKILEQERAEKARQQAK(γE-(2-[2-(2-Amino-ethoxy)-ethoxy]-acetyl)-ϵK-CO-(CH2)18-CO2H)EAAEILAQV-NH2]
peptides displayed on MHC-II complexes [1]: at least one peptide cluster on MHC-II complexes in a subset of donors
immunogenicity compared with SEQ ID NO:54 [1]: substantial improvements in immunogenicity over a compound comprising SEQ ID NO:54

MAPPS Assay >10 donors with diverse MHC [1, 3]: 1/10
MAPPS Assay >10 donors with diverse MHC [1, 4]: 10%
AUC0-inf ([2]; Yucatan mini-pig, minipig, plasma, sc, male Yucatan pigs, single subcutaneous dose 18 nmol/kg, Mean, read-out: AUC0-inf): 22.5 µM·h
Cmax ([2]; Yucatan mini-pig, minipig, plasma, sc, male Yucatan pigs, single subcutaneous dose 18 nmol/kg, Mean, read-out: Cmax): 154 nM
AUC0-inf [2, 19]: 23.9 µM·h and 21 µM·h
CL/F [2, 19]: 21.3 mL/day/kg
Cmax [2, 19]: 165 nM and 143 nM
T1/2 [2, 19]: 85.8 h
Tmax [2, 19]: 6.0 h
clearance [2, 20]: 19.7 mL/day/kg
half-life [2, 20]: 90.1 h
clearance [2, 21]: 17.6 mL/day/kg
half-life [2, 21]: 95.6 h
half-life ([2]; male, Yucatan mini-pig, minipig, plasma, sc, 18 nmol/kg, single subcutaneous dose 18 nmol/kg, Mean): 82.5 h
CL/F ([2]; male, Yucatan mini-pig, minipig, plasma, sc, 18 nmol/kg, single subcutaneous dose 18 nmol/kg, Mean, read-out: CL/F (converted)): 20 mL/day/kg
Tmax ([2]; male, Yucatan mini-pig, minipig, plasma, sc, 18 nmol/kg, single subcutaneous dose 18 nmol/kg, Mean, read-out: Tmax): 15 h
half-life ([2]; male, Yucatan mini-pig, minipig, plasma, sc, 18 nmol/kg, single subcutaneous dose 18 nmol/kg, individual animal): 79.1 h
CL/F ([2]; male, Yucatan mini-pig, minipig, plasma, sc, 18 nmol/kg, single subcutaneous dose 18 nmol/kg, individual animal, read-out: CL/F (converted)): 18.6 mL/day/kg
AUC0-inf ([2]; minipig, plasma, single intravenous dose 18 nmol/kg, male Yucatan pigs, mean, read-out: AUC0-inf): 25.3 µM·h
C0 ([2]; minipig, plasma, single intravenous dose 18 nmol/kg, male Yucatan pigs, mean, read-out: C0): 418 nM
AUC0-inf [2, 22]: 22.3 µM·h and 28.3 µM·h
C0 [2, 22]: 373 nM and 462 nM
CL [2, 22]: 15.5 mL/day/kg
T1/2 [2, 22]: 101 h
Substance: [pGlu]GSPSGIVTS[αMeL]DVPT[Aib][αMeL]LQKILEQERAEKARQQAK([γGlu-AEEA-εLys-C20 diacid])EAAEILAQV-NH2 [SEQ ID NO: 22, Pyr-GSPSGIVTS αMeL DVPT Aib αMeL LQKILEQERAEKARQQAK(γE-(2-[2-(2-Amino-ethoxy)-ethoxy]-acetyl)-ϵK-CO-(CH2)18-CO2H)EAAEILAQV-NH2]
peptides displayed on MHC-II complexes [1]: at least one peptide cluster on MHC-II complexes in a subset of donors
immunogenicity compared with SEQ ID NO:54 [1]: substantial improvements in immunogenicity over a compound comprising SEQ ID NO:54

MAPPS Assay >10 donors with diverse MHC [1, 3]: 0/10
MAPPS Assay >10 donors with diverse MHC [1, 4]: 0%
AUC0-inf [2, 5]: 27.6 µM·h
Cmax [2, 6]: 170 nM
AUC0-inf [2, 7]: 28.3 µM·h and 26.8 µM·h
CL/F [2, 7]: 17.2 mL/day/kg
Cmax [2, 7]: 159 nM and 181 nM
T1/2 [2, 7]: 70.4 h
clearance [2, 8]: 10.9 mL/day/kg
half-life [2, 8]: 106 h
clearance [2, 9]: 11.6 mL/day/kg
half-life [2, 9]: 96.4 h
half-life [2, 10]: 75.6 h
CL/F [2, 11]: 16.8 mL/day/kg
Tmax [2, 12]: 24 h
half-life [2, 13]: 80.8 h
CL/F [2, 14]: 16.3 mL/day/kg
Tmax [2, 15]: 24 h
AUC0-inf [2, 16]: 39.6 µM·h
C0 [2, 17]: 534 nM
AUC0-inf [2, 18]: 41.9 µM·h and 37.2 µM·h
C0 [2, 18]: 522 nM and 545 nM
CL [2, 18]: 12.2 mL/day/kg
T1/2 [2, 18]: 86.8 h
Substance: {C20 diacid-εLys-AEEA-γGlu}-GSPSIVTS[αMeL]DVPT[Aib][αMeL]LQKILEQERAEKARQQATEAAEILAQV-NH2 [SEQ ID NO: 25]
peptides displayed on MHC-II complexes [1]: no peptides displayed on MHC-II complexes
immunogenicity compared with SEQ ID NO:54 [1]: substantial improvements in immunogenicity over a compound comprising SEQ ID NO:54
